Holding throughout (assay): Ray2010 Assay 74
The target in one assay is Cannabinoid receptor 2 (Homo sapiens, UniProt P34972). From the text:
(§1) Table S2 shows raw Ki data for the current study combined with data collected from the literature for the ten additional compounds.

The target in assay [1] is Neuronal acetylcholine receptor subunit alpha-4/beta-2 (Mus musculus, UniProt O70174+Q9ERK7).
Description: as §1

The target of assay [2] is T1, 5-hydroxytryptamine receptor 2C (Homo sapiens, UniProt P28335).
T1 sequence (P28335 whole entry): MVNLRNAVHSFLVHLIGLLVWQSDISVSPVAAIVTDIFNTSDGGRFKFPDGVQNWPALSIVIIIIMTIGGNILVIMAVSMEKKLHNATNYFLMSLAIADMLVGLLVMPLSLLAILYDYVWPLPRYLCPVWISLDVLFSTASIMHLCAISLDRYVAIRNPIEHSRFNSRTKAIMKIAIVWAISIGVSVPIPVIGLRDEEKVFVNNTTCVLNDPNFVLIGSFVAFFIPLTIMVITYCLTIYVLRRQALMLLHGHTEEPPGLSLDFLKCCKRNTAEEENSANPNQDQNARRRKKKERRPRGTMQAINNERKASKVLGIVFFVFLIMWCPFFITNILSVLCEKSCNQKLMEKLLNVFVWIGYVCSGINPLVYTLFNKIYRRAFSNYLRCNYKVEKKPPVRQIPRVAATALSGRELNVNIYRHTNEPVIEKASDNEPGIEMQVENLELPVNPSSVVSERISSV
Description: as §1

The target in assay [3] is Neuronal acetylcholine receptor subunit alpha-3/beta-2 (Homo sapiens, UniProt P17787+P32297).
Description: as §1

In assay [4] the target is Neuronal acetylcholine receptor subunit alpha-2/beta-2 (Homo sapiens, UniProt P17787+Q15822).
Description: as §1

In assay [5] the target is Neuronal acetylcholine receptor subunit alpha-4/beta-2 (Homo sapiens, UniProt P17787+P43681).
Description: as §1

The target of assay [6] is Muscarinic acetylcholine receptor M3 (Homo sapiens, UniProt P20309).
Description: as §1

Assay [7] concerns the target Neuronal acetylcholine receptor subunit alpha-2/beta-4 (Homo sapiens, UniProt P30926+Q15822).
Description: as §1

The next assay has as its target Cannabinoid receptor 1 (Homo sapiens, UniProt P21554).
Description: as §1

Assay [8] addresses Neuronal acetylcholine receptor subunit alpha-4/beta-4 (Homo sapiens, UniProt P30926+P43681).
Description: as §1

Assay [9] addresses Beta-2 adrenergic receptor (Homo sapiens, UniProt P07550).
Description: as §1

The target of a further assay is Histamine H3 receptor (Homo sapiens, UniProt Q9Y5N1).
Description: as §1

The target in assay [10] is Metabotropic glutamate receptor 6 (Homo sapiens, UniProt O15303).
Description: as §1

The target of assay [11] is Metabotropic glutamate receptor 2 (Homo sapiens, UniProt Q14416).
Description: as §1

Assay [12] concerns the target Metabotropic glutamate receptor 8 (Homo sapiens, UniProt O00222).
Description: as §1

For assay [13], the target named is Metabotropic glutamate receptor 4 (Homo sapiens, UniProt Q14833).
Description: as §1

The target in another assay is Vasopressin V1a receptor (Homo sapiens, UniProt P37288).
Description: as §1

Assay [14] deals with Metabotropic glutamate receptor 5 (Homo sapiens, UniProt P41594).
Description: as §1

For assay [15], the target named is Metabotropic glutamate receptor 1 (Homo sapiens, UniProt Q13255).
Description: as §1

For a further assay, the target named is Glutamate receptor 4 (Homo sapiens, UniProt P48058).
Description: as §1

This passage reports Ki results from BindingDB's records for PubMed 20126400 (University of Oklahoma, 2010).

Chain of Metabotropic glutamate receptor 1 (Q13255 whole entry): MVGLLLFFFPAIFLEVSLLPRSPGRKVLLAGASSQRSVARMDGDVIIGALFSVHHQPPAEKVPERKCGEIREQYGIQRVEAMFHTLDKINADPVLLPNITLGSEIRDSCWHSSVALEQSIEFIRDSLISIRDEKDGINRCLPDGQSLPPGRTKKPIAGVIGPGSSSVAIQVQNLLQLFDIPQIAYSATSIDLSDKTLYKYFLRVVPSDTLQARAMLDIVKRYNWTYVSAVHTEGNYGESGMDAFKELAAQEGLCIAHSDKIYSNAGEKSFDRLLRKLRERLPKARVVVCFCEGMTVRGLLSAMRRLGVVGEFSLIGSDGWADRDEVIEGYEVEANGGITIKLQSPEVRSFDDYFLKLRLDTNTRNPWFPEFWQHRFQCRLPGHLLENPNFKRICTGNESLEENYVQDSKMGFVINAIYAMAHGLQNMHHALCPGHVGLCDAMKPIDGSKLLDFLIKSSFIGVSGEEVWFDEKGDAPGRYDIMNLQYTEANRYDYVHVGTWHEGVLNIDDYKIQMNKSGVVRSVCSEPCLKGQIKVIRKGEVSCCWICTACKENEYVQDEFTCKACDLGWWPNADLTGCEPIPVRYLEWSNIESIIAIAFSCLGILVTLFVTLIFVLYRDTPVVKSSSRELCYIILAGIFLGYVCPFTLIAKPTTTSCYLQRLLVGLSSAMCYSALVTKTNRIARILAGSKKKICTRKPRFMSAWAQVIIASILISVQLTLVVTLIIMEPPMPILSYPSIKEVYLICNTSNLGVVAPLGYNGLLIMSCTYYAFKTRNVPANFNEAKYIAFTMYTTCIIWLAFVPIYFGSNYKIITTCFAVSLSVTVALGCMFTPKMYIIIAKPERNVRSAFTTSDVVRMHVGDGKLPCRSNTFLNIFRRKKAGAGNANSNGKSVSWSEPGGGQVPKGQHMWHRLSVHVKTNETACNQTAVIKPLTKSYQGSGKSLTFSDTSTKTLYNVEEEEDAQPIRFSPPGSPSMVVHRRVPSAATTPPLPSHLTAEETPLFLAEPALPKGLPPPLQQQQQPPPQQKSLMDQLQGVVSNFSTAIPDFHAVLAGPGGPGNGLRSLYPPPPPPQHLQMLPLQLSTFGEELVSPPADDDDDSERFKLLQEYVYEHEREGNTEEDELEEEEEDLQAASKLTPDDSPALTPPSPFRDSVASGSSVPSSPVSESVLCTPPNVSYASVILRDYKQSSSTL
Chain of Metabotropic glutamate receptor 5 (P41594 whole entry): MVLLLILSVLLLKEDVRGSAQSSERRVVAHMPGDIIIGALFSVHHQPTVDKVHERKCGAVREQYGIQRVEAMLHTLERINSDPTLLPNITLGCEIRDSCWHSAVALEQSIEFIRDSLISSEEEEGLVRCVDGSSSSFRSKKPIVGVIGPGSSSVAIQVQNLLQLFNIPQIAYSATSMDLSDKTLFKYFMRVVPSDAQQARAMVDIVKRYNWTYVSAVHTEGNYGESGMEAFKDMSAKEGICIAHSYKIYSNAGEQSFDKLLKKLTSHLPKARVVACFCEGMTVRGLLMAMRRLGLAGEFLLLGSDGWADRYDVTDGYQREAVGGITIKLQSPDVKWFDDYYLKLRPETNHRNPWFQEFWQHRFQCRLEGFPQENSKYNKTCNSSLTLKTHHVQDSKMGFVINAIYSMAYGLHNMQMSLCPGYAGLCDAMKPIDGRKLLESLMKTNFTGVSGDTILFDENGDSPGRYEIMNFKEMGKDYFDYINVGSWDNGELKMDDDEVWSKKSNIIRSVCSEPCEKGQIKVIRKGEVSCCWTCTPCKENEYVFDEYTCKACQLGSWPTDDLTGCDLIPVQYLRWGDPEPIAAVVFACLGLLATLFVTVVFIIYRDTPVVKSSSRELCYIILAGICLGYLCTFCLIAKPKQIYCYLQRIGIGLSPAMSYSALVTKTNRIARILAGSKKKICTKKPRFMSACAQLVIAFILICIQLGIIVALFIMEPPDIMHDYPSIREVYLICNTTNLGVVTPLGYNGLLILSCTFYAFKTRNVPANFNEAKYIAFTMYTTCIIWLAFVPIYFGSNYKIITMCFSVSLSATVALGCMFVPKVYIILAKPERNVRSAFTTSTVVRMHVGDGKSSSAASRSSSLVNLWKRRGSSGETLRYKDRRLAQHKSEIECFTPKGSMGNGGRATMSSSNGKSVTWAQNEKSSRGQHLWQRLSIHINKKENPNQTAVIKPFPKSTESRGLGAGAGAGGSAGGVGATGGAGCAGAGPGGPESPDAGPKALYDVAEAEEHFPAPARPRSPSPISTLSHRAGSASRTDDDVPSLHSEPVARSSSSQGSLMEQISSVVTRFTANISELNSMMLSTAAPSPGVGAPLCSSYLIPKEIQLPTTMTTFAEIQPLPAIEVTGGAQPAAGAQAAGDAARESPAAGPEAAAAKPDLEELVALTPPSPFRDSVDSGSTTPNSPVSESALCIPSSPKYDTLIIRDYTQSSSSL
Chain of Metabotropic glutamate receptor 8 (O00222 whole entry): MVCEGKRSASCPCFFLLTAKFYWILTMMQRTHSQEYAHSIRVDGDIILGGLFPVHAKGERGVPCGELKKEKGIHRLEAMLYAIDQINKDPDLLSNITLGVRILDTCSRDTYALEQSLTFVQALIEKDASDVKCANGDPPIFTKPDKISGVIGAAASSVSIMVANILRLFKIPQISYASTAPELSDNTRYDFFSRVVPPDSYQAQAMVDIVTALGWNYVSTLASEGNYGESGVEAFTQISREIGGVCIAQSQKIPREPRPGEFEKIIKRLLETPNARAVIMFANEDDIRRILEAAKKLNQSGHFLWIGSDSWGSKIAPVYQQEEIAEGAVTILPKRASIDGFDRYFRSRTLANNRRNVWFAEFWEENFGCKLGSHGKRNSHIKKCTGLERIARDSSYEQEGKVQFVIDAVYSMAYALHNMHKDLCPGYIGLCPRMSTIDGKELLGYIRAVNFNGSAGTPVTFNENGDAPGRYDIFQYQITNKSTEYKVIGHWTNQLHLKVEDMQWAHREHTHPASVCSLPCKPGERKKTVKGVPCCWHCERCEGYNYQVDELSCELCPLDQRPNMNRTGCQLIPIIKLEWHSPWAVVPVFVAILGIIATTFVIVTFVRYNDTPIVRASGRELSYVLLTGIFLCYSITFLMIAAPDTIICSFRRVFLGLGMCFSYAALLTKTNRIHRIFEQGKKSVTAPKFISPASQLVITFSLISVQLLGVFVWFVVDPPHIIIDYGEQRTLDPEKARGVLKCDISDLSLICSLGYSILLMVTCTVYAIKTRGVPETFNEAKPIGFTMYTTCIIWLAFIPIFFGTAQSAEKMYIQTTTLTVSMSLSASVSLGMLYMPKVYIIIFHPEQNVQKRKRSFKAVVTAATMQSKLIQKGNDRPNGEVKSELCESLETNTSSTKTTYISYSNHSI
Chain of Metabotropic glutamate receptor 6 (O15303 whole entry): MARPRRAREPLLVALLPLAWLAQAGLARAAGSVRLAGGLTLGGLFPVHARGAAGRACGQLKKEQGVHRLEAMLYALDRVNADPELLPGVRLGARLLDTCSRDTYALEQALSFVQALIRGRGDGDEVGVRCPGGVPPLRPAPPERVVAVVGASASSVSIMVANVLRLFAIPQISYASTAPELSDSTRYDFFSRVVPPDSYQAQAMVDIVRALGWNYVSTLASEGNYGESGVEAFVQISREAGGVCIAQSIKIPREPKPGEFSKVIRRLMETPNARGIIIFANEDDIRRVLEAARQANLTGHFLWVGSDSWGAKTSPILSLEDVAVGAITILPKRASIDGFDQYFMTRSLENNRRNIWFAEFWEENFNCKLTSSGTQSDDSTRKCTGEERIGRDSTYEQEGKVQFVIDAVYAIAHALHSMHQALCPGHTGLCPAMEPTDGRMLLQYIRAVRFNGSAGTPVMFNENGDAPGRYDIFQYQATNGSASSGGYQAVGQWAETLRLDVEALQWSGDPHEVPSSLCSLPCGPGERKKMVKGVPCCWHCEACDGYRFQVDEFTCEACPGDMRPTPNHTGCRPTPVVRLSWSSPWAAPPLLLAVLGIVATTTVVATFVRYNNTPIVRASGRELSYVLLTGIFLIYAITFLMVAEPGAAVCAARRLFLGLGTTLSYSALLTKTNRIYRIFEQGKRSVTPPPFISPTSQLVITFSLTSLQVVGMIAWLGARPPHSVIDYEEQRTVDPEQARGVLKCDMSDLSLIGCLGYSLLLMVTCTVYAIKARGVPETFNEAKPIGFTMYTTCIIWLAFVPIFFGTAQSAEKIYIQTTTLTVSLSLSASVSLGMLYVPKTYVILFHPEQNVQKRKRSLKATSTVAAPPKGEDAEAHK
Chain of Metabotropic glutamate receptor 4 (Q14833 whole entry): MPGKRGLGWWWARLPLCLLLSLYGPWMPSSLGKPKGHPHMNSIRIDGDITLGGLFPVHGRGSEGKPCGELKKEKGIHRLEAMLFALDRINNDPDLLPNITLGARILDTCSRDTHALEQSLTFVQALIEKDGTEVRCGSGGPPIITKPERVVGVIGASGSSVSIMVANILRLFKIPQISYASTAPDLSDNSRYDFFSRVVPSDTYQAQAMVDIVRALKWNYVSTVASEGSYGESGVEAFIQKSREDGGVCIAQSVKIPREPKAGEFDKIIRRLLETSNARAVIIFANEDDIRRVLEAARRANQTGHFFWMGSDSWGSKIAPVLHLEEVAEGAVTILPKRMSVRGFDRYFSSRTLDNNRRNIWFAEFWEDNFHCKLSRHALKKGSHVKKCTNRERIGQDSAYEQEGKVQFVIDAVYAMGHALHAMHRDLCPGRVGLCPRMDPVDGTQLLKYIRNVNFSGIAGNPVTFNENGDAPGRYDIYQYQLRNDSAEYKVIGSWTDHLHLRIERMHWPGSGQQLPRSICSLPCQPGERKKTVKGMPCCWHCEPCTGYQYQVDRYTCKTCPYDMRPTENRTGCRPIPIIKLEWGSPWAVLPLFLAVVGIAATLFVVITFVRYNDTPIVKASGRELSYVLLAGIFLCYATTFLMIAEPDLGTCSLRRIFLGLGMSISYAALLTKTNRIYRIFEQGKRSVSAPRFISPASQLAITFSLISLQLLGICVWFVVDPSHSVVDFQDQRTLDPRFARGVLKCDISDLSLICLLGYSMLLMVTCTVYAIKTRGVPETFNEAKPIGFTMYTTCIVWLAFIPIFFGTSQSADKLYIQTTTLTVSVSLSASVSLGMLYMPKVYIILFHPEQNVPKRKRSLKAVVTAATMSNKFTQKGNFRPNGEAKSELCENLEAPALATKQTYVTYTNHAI

For `NCCc1c2c(c(Br)c3c1OCC3)OCC2` [2-(8-Bromo-2,3,6,7-tetrahydro-benzo[1,2-b;4,5-b']difuran-4-yl)-ethylamine], the Ki (as a rule, a dissociation constant, usually derived from enzyme kinetics or from competition with a known ligand) was 8.97 µM at Cannabinoid receptor 2; > 10 µM in [1]; 0.0106 µM in assay [2]; > 10 µM in assay [3]; > 10 µM in assay [4]; > 10 µM in [5]. For the same compound, the Ki in assay [6] is 0.339 µM; in assay [7], > 10 µM; on Cannabinoid receptor 1, > 10 µM; in assay [8] it was > 10 µM; in assay [9], > 10 µM; on Histamine H3 receptor it was > 10 µM.

`C[C@@H]1C[C@H](C)N1C(=O)C1C=C2c3cccc4[nH]cc(c34)C[C@H]2N(C)C1` (stereo partly drawn) [cis-2a]: the Ki in [10], in assay [11], in [1], in [12], in assay [3] and in assay [13] was > 10 µM throughout. The inhibition constant (Ki) (in assay [4]; in assay [5]; in [7]; on Vasopressin V1a receptor; in assay [14]; in [8]) was > 10 µM in each case. Besides, in assay [15], the Ki was > 10 µM.

For the compound `COc1ccc2[nH]c(C)c(CCN(C)C)c2c1` [[2-(5-Methoxy-2-methyl-1H-indol-3-yl)-ethyl]-dimethyl-amine (C2H2O)], the Ki (at Glutamate receptor 4; in assay [1]; in assay [3]; in assay [4]; in assay [5]; in assay [6]) was > 10 µM each time. Besides, the Ki (in assay [7]; on Vasopressin V1a receptor; in assay [8]; at Histamine H3 receptor) was > 10 µM each time.

Turning to `C[C@@H]1C[C@@H](C)N1C(=O)C1C=C2c3cccc4[nH]cc(c34)C[C@H]2N(C)C1` (stereo partly specified) [rr-2b], the inhibition constant Ki in assay [10], in assay [11], in assay [1], in [12], in assay [3] and in [13] was > 10 µM throughout. The Ki (in [4]; in [5]; in [7]; on Vasopressin V1a receptor; in [14]; in assay [8]) was > 10 µM throughout. In [15], the Ki was > 10 µM.

Consider `CCN(CC)C(=O)[C@@H]1C=C2c3cccc4[nH]cc(c34)C[C@H]2N(C)C1` [[N-methyl-3H]LSD], for which the Ki in assay [10], in [11], in assay [1], in assay [12], in assay [3] and in [13] was > 10 µM in each case. The Ki (in assay [4]; in assay [5]; in assay [7]; on Vasopressin V1a receptor; in [14]; in assay [8]) was > 10 µM in each case. Moreover, the inhibition constant Ki in assay [15] is > 10 µM.

Regarding `CCc1[nH]c2ccc(OC)cc2c1CCN(C)C` [2-ethyl-5-methoxy-N,N-dimethyltryptamine], the Ki (at Glutamate receptor 4; in assay [1]; in assay [3]; in assay [4]; in assay [5]; in [6]) was > 10 µM in each case. The Ki (in [7]; on Vasopressin V1a receptor; in [8]; on Histamine H3 receptor) was > 10 µM in each case.
